For orientation: GI50 means the concentration at which growth is held to half of that of the control. A high value points to lower sensitivity of the cells.

Type in all cases: functional
Assay [1] deals with NCI-H322M. Kind of assay: Growth inhibition of human NCI-H322M cells after 48 hrs by SRB assay. A general note: In SRB staining, fixed cells bind dye roughly in proportion to their protein.
The subject of assay [2] is A549. Kind of assay: Growth inhibition of human A549 cells after 48 hrs by SRB assay. Conditions: A549, 48 h.
The test system of assay [3] is A498. The assay is described as follows: Growth inhibition of human A498 cells after 48 hrs by SRB assay. Conditions: A498, 48 h.
In assay [4] the test system is SNB-19. The assay is described as follows: Growth inhibition of human SNB19 cells after 48 hrs by SRB assay. Conditions: SNB-19, 48 h.
Assay [5] concerns SF-295. The assay is described as follows: Growth inhibition of human SF295 cells after 48 hrs by SRB assay. Conditions: SF-295, 48 h.
Assay [6] has as its system HCT-116. The assay is described as follows: Growth inhibition of human HCT116 cells after 48 hrs by SRB assay. Conditions: HCT-116, 48 h.
Assay [7] relates to M14. The assay is described as follows: Growth inhibition of human M14 cells after 48 hrs by SRB assay. Conditions: M14, 48 h.
The mark [8] stands for this setting: read-out: pLC50 (the source's name) (converted).

On to `N=C(N)N/N=C\c1c(-c2ccc([N+](=O)[O-])cc2)nc2sc(Br)cn12`, for which the GI50 in assay [1] was 309 nM; in assay [2], 182 nM; in assay [3], 1580 nM; in assay [4], 380 nM; in assay [5] it was 575 nM; in assay [6], 166 nM. Besides, in assay [7], the concentration for 50% growth inhibition (GI50) is 229 nM. Besides, the CC50 is 3980 nM in assay [1] (setting [8]); 6610 nM in assay [2] (setting [8]); 6030 nM in assay [3] (setting [8]); 5010 nM in assay [4] (setting [8]); 6310 nM in assay [5] (setting [8]); 832 nM in assay [6] (setting [8]). In assay [7] (setting [8]), the CC50 is 1660 nM. Besides, the TGI in assay [1] (read-out: pTGI (converted)) is 4170 nM; in assay [2] (read-out: pTGI (converted)) it was 347 nM; in assay [3] (read-out: pTGI (converted)), 3090 nM; in assay [4] (read-out: pTGI (converted)), 4790 nM; in assay [5] (read-out: pTGI (converted)), 4470 nM; in assay [6] (read-out: pTGI (converted)), 302 nM. Moreover, the TGI in assay [7] (read-out: pTGI (converted)) was 537 nM.
